Measured values published in patent US20250296971A1, “GASTRIC INHIBITORY PEPTIDE RECEPTOR LIGANDS” (priority 2021, published 2025).
Like-named read-outs stand apart in the source and are kept apart here. *1 amine or outer side, *2 acyl side, *3 side chain or, on linkers, in order; H or OH if unused. Where a SMILES comes first, the peptide text is derived from it. Bridges are numbered along the chain shown (N, C = ends). Where no end group is shown, it is not given here. Side-chain parts run from the residue outwards. [ ]: non-standard residue; d: D form. The star is where a group is joined. NH(1-deoxy-D-glucityl) = OC[C@@H](O)[C@@H](O)[C@H](O)[C@@H](O)CN*; DOTA = O=C(O)CN1CCN(CC(=O)O)CCN(CC(=O)*)CCN(CC(=O)O)CC1; Trp(5-Cl) = N[C@@H](Cc1c[nH]c2ccc(Cl)cc12)C(=O)O; Pyridine(2,6-diCH2) = c1cc(C[*:1])nc(C[*:2])c1; Phe(2-Cl) = N[C@@H](Cc1ccccc1Cl)C(=O)O; mXylylene = c1cc(C[*:1])cc(C[*:2])c1; Glutaryl = O=C(CCCC(=O)[*:2])[*:1]; Hyp = O=C(O)[C@@H]1C[C@@H](O)CN1; X1 = O=C(CN1CCC(N[*:1])CC1)[*:2]; Api = NC1(C(=O)O)CCNCC1; Thp = NC1(C(=O)O)CCOCC1

T1: GIPR (CHO-K1-hGIPR cells) (Homo sapiens, UniProt P48546)
T1 construct: host or cells: CHO-K1
T1 sequence (P48546 22-466): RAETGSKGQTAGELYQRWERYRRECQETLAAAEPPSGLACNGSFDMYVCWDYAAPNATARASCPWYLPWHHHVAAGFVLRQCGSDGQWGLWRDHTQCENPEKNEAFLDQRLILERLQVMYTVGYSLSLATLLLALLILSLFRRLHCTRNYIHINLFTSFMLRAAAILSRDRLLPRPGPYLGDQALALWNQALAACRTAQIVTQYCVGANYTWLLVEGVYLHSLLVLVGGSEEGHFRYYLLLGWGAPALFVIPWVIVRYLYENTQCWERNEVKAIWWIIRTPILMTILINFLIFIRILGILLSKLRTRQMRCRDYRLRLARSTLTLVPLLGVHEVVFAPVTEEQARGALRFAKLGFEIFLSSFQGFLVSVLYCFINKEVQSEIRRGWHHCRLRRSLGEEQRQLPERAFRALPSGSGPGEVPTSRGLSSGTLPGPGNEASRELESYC


Key:
[1] = target: T1, GIPR (CHO-K1-hGIPR cells); experiment: FACS binding assay; conditions: read-out: pIC50 Category (converted)
Procedure, shortened: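 Steps: detach CHO-K1-hGIPR cells (Accutase); wash in PBS/1% FCS; adjust to 500.000 cells per mL; wash ice-cold; incubate APC-streptavidin 1 μg/mL, 30 min on ice; wash twice; acquire on flow cytometer; fit MFI-concentration data with a four-parameter logistic model.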

[2] = Plasma stability assay, human plasma; assay type: in vitro ADME; conditions: 37° C., % intact compound remaining after 4 h or 24 h
Method: (§1) In order to determine the stability of selected compounds of the invention in human and mouse plasma, a plasma stability assay was carried out. Such plasma stability assay measures degradation of compounds of the present invention in blood plasma. This is an important characteristic of a compound as compounds, with the exception of pro-drugs, which rapidly degrade in plasma, generally show poor in vivo efficacy. […] The stability is sufficient for the diagnostic, therapeutic and theragnostic use of these compounds according to the present invention.
(§2) The plasma stability samples were prepared by spiking 50 μL plasma aliquots (all K2EDTA) with 1 μL of a 0.5 mM compound stock solution in DMS0. After vortexing the samples were incubated in a Thermomixer at 37° C. for 0, 4 and 24 hours. After incubation the samples were stored on ice until further treatment. All samples were prepared in duplicates.
(§3) A suitable internal standard was added to each sample (1 μL of a 0.5 mM stock solution in DMSO). Protein precipitation was performed by addition of 250 μL of acetonitrile containing 1% trifluoroacetic acid. After incubation at room temperature for 30 min the precipitate was separated by centrifugation and 150 μL of the supernatant was diluted with 150 μL of 1% aqueous formic acid.
(§4) Additionally, recovery was determined by spiking a pure plasma sample that only contained the internal standard after treatment with a certain amount of the compound.
(§5) Carry-over was evaluated by analysis of a blank sample (20% acetonitrile) after the highest calibration sample.

[3] = Plasma stability assay, mouse plasma; assay type: in vitro ADME; conditions: 37° C., % intact compound remaining after 4 h or 24 h
Method: as §1, §2, §3, §4, §5

[4] = target: Recombinant soluble human NEP (Homo sapiens, UniProt P08473); experiment: Proteolytic stability assay against NEP; conditions: NEP 100 ng/mL, compound 10 μM, 37° C., % intact compound remaining
[5] = target: human Gastric Inhibitory Peptide Receptor (GIPR) (human) (UniProt P48546); experiment: FACS competition vs biotinylated GIP-057 on CHO-K1-hGIPR cells; category C: pIC50 6.1-7.0
[6] = competition with 20 nM GIP-057, 4° C., 1 hour
[7] = competition with 20 nM GIP-057, 4° C. for 1 hour

Recombinant soluble human NEP, sequence (P08473 52-750 limits assumed): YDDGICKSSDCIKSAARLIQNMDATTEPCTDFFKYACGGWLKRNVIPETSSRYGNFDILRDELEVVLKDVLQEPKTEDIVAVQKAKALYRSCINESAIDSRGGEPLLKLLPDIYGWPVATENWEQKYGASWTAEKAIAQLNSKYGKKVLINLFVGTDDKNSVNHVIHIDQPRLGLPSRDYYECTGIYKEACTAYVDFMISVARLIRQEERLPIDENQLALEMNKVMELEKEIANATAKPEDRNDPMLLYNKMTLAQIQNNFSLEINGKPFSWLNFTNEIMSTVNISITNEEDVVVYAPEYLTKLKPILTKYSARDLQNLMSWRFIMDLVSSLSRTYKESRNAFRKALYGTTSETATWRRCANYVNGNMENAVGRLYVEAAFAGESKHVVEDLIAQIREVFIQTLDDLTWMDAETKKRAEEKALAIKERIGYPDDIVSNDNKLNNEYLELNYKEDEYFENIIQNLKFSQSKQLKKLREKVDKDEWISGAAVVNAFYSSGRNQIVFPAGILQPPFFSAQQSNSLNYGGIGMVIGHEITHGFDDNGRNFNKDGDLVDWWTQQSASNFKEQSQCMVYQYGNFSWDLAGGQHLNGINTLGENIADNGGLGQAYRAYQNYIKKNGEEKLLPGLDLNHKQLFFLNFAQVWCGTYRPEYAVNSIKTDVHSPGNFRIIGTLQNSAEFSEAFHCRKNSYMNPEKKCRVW

Molecule	IC50 [1, 6]	Human plasma stability category [2]	Mouse plasma stability category [3]	NEP stability category [4]	IC50 [1, 7]	pIC50 [5]
CC[C@H](C)[C@@H]1NC(=O)[C@H](CC(C)C)NC(=O)[C@H](C)NC(=O)[C@@H](NC(=O)[C@H](CC(C)C)NC(=O)[C@H](CCC(=O)O)NC(=O)[C@@H]2CCCN2C(=O)[C@H](Cc2c[nH]c3ccccc23)NC(=O)[C@H](Cc2c[nH]c3ccccc23)NC(=O)[C@H](CC(=O)O)NC(=O)[C@H](Cc2ccc(O)cc2)NC(C)=O)CSCc2cccc(c2)CSC[C@@H](C(N)=O)NC1=O [GIP-240, Ac-Tyr-Asp-Trp-Trp-Pro-Glu-Leu-[Cys(3MeBn)-Ala-Leu-Ile-Cys]-NH2] (Ac-YDWWPELCALIC-NH2; linker 8-12 via mXylylene)	10 to 79.4 nM	B (>80% intact after 4 hours)	B (>80% intact after 4 hours)	–	–	–
CC[C@H](C)[C@@H]1NC(=O)[C@H](CC(C)C)NC(=O)C2(CCN(C(=O)CCCC(=O)NC[C@H](O)[C@@H](O)[C@H](O)[C@H](O)CO)CC2)NC(=O)[C@@H](NC(=O)[C@@H](CC(C)C)NC(=O)[C@H](CCC(=O)O)NC(=O)[C@@H]2C[C@@H](O)CN2C(=O)[C@H](Cc2c[nH]c3ccc(Cl)cc23)NC(=O)[C@H](Cc2c[nH]c3ccccc23)NC(=O)[C@H](CC(=O)O)NC(=O)CN2CCC(NC(=O)[C@@H](CCC(=O)NC[C@H](O)[C@@H](O)[C@H](O)[C@H](O)CO)NC(=O)CN3CCN(CC(=O)O)CCN(CC(=O)O)CCN(CC(=O)O)CC3)CC2)CSCc2cccc(n2)CSC[C@@H](C(=O)NC2CCN(CC(=O)N[C@H](CCC(=O)NC[C@H](O)[C@@H](O)[C@H](O)[C@H](O)CO)C(N)=O)CC2)NC1=O [GIP-003, DOTA-glu(AGLU)-APAc-Asp-Trp-5Clw-Hyp-Glu-leu-[Cys(2Lut)-Apc(AGLU-Glutar)-Leu-Ile-Cys]-APAc-glu(AGLU)-NH2] ({DOTA}-[dE](NH(1-deoxy-D-glucityl))[X1]DW[Trp(5-Cl)][Hyp]E[dL]C[Api]([Glutaryl-NH(1-deoxy-D-glucityl)])LIC[X1][dE](NH(1-deoxy-D-glucityl))-NH2; linker 9-13 via Pyridine(2,6-diCH2))	< 10 nM	–	–	A (>80% intact after 24 hours)	–	–
CC[C@H](C)[C@@H]1NC(=O)[C@H](CC(C)C)NC(=O)[C@H](CCC(N)=O)NC(=O)[C@@H](NC(=O)[C@H](CC(C)C)NC(=O)[C@H](CCC(=O)O)NC(=O)[C@@H]2CCCN2C(=O)[C@H](Cc2c[nH]c3ccccc23)NC(=O)[C@H](Cc2c[nH]c3ccccc23)NC(=O)[C@H](CC(=O)O)NC(=O)[C@H](Cc2ccc(O)cc2)NC(=O)[C@@H](N)CCSC)CSCc2cccc(c2)CSC[C@@H](C(N)=O)NC1=O [GIP-241] (H-MYDWWPELCQLIC-NH2; linker 9-13 via mXylylene)	10 to 79.4 nM	B (>80% intact after 4 hours)	C (≥50% intact after 4 hours)	–	–	–
CC[C@H](C)[C@@H]1NC(=O)[C@H](CC(C)C)NC(=O)[C@H](C)NC(=O)[C@@H](NC(=O)[C@H](CC(C)C)NC(=O)[C@H](CCC(=O)O)NC(=O)[C@@H]2CCCN2C(=O)[C@H](Cc2c[nH]c3ccccc23)NC(=O)[C@H](Cc2c[nH]c3ccccc23)NC(=O)[C@H](CC(=O)O)NC(=O)[C@@H](Cc2ccc(O)cc2)NC(=O)[C@@H](N)CCSC)CSCc2cccc(c2)CSC[C@@H](C(N)=O)NC1=O [GIP-246, H-Met-tyr-Asp-Trp-Trp-Pro-Glu-Leu-[Cys(3MeBn)-Ala-Leu-Ile-Cys]-NH2] (H-M[dY]DWWPELCALIC-NH2; linker 9-13 via mXylylene)	–	B (>80% intact after 4 hours)	B (>80% intact after 4 hours)	–	10 to 79.4 nM	–
CC[C@H](C)[C@@H]1NC(=O)[C@H](CC(C)C)NC(=O)[C@H]([C@@H](C)O)NC(=O)[C@@H](NC(=O)[C@H](CC(C)C)NC(=O)[C@H](CCC(=O)O)NC(=O)[C@@H]2CCCN2C(=O)[C@H](Cc2c[nH]c3ccccc23)NC(=O)[C@H](Cc2c[nH]c3ccccc23)NC(=O)[C@H](CC(=O)O)NC(=O)[C@H](Cc2ccc(O)cc2)NC(=O)[C@@H](N)CCSC)CSCc2cccc(c2)CSC[C@@H](C(N)=O)NC1=O [GIP-242] (H-MYDWWPELCTLIC-NH2; linker 9-13 via mXylylene)	10 to 79.4 nM	B (>80% intact after 4 hours)	C (≥50% intact after 4 hours)	–	–	–
CC[C@H](C)[C@@H]1NC(=O)[C@H](CC(C)C)NC(=O)[C@H](C)NC(=O)[C@@H](NC(=O)[C@H](CC(C)C)NC(=O)[C@@H](CCC(=O)O)NC(=O)[C@@H]2CCCN2C(=O)[C@H](Cc2c[nH]c3ccccc23)NC(=O)[C@H](Cc2c[nH]c3ccccc23)NC(=O)[C@H](CC(=O)O)NC(=O)[C@H](Cc2ccc(O)cc2)NC(=O)[C@@H](N)CCSC)CSCc2cccc(c2)CSC[C@@H](C(N)=O)NC1=O [GIP-245, H-Met-Tyr-Asp-Trp-Trp-Pro-glu-Leu-[Cys(3MeBn)-Ala-Leu-Ile-Cys]-NH2] (H-MYDWWP[dE]LCALIC-NH2; linker 9-13 via mXylylene)	–	B (>80% intact after 4 hours)	D (<50% intact after 4 hours)	–	10 to 79.4 nM	–
CC[C@H](C)[C@@H]1NC(=O)[C@H](CC(C)C)NC(=O)[C@H](C)NC(=O)[C@@H](NC(=O)[C@@H](CC(C)C)NC(=O)[C@H](CCC(=O)O)NC(=O)[C@@H]2CCCN2C(=O)[C@H](Cc2c[nH]c3ccccc23)NC(=O)[C@H](Cc2c[nH]c3ccccc23)NC(=O)[C@H](CC(=O)O)NC(=O)[C@H](Cc2ccc(O)cc2)NC(=O)[C@@H](N)CCSC)CSCc2cccc(c2)CSC[C@@H](C(N)=O)NC1=O [GIP-247, H-Met-Tyr-Asp-Trp-Trp-Pro-Glu-leu-[Cys(3MeBn)-Ala-Leu-Ile-Cys]-NH2] (H-MYDWWPE[dL]CALIC-NH2; linker 9-13 via mXylylene)	–	C (≥50% intact after 4 hours)	D (<50% intact after 4 hours)	–	10 to 79.4 nM	–
CC[C@H](C)[C@@H]1NC(=O)[C@H](CC(C)C)NC(=O)[C@@H](C)NC(=O)[C@@H](NC(=O)[C@H](CC(C)C)NC(=O)[C@H](CCC(=O)O)NC(=O)[C@@H]2CCCN2C(=O)[C@H](Cc2c[nH]c3ccccc23)NC(=O)[C@H](Cc2c[nH]c3ccccc23)NC(=O)[C@H](CC(=O)O)NC(=O)[C@H](Cc2ccc(O)cc2)NC(=O)[C@@H](N)CCSC)CSCc2cccc(c2)CSC[C@@H](C(N)=O)NC1=O [GIP-248] (H-MYDWWPELC[dA]LIC-NH2; linker 9-13 via mXylylene)	–	B (>80% intact after 4 hours)	D (<50% intact after 4 hours)	–	10 to 79.4 nM	–
Ac-DW[Trp(5-Cl)][Hyp]E[dL]C[Thp]LIC-NH2 (disulfide 7-11) [Ac-Asp-Trp-5Clw-Hyp-Glu-leu-[Cys-Thp-Leu-Ile-Cys]-NH2]	–	–	–	–	–	6.1 to 7 pic50
Ac-D[Phe(2-Cl)][Trp(5-Cl)][Hyp]E[dL]C[Thp]LIC (linker 7-11 via Pyridine(2,6-diCH2); not fully specified (C-terminus)) [Ac-Asp-Ocf-5Clw-Hyp-Glu-leu-[Cys(2Lut)-Thp-Leu-Ile-Cys]-lys(DOTA)-NH2]	–	–	–	–	–	6.1 to 7 pic50
